Results: PubChem BioAssay (NCI)
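A five-concentration, 48-hour dose response in 96-well plates underlies each endpoint, interpolated linearly between surrounding concentrations. GI50 is the concentration that inhibits growth by half. TGI denotes the concentration required for complete inhibition of growth.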

What was measured:
Assay in all cases: inhibition of tumour cell growth, NCI panel, 48 h
[1] = test system: DU-145 prostate
[2] = test system: MDA-MB-231 breast
[3] = test system: MDA-MB-435
[4] = test system: NCI/ADR-RES ovarian
[5] = test system: PC-3 prostate
[6] = test system: T-47D breast

C=C1C(=O)OC2C1C(OC(=O)/C(C)=C/C)CC(O)(CCl)C1C(O)C3OC3(C)C21O (configuration not stated)
TGI [1]: > 50 µM
TGI [2]: > 50 µM
TGI [3]: > 50 µM
TGI [4]: > 50 µM
TGI [5]: > 50 µM
TGI [6]: > 50 µM

CS[C@]12C(=O)C[C@@]3(C)[C@@H](CC[C@]3(O)C(=O)CO)[C@@H]1CCC1=CC(=O)CC[C@@]12C
TGI [1]: > 100 µM
TGI [2]: > 100 µM
TGI [3]: > 100 µM
TGI [4]: > 100 µM
TGI [5]: > 100 µM
TGI [6]: > 100 µM

CCN(CC)Cc1ccc(Nc2nccc(-c3cnn4ncccc34)n2)cc1
GI50 [1]: 0.012 µM
TGI [1]: > 8.56 µM
GI50 [2]: 0.0226 µM
TGI [2]: > 25 µM
GI50 [3]: 0.0232 µM
TGI [3]: 0.0945 µM
GI50 [4]: 0.032 µM
TGI [4]: > 25 µM
GI50 [5]: 0.0184 µM
TGI [5]: > 25 µM
GI50 [6]: 0.0542 µM
TGI [6]: 6.6 µM

Clc1nc(Cl)c2ncn(C/C=C/COc3cccc(OC/C=C/Cn4cnc5c(Cl)nc(Cl)nc54)c3)c2n1
GI50 [1]: 14.7 µM
TGI [1]: 27.8 µM
GI50 [2]: 12.7 µM
TGI [2]: 25.3 µM
GI50 [3]: > 100 µM
TGI [3]: > 100 µM
GI50 [4]: > 100 µM
TGI [4]: > 100 µM
GI50 [5]: 42 µM
TGI [5]: > 100 µM
GI50 [6]: 99.8 µM
TGI [6]: > 100 µM

C=C1C(=O)OC2/C=C(/C)C(OC(C)=O)CC(O)/C(C)=C\C(OC(=O)/C(C)=C\C)C12 (configuration not stated)
TGI [1]: > 100 µM
TGI [2]: > 100 µM
TGI [3]: > 100 µM
TGI [4]: > 100 µM
TGI [5]: > 100 µM
TGI [6]: > 100 µM

Cn1cc(C2=C(c3cccc(OCC(O)CO)c3)C(=O)NC2=O)c2ccccc21 (configuration not stated)
GI50 [1]: > 25 µM
TGI [1]: > 25 µM
GI50 [2]: > 25 µM
TGI [2]: > 25 µM
GI50 [3]: > 19.1 µM
TGI [3]: > 25 µM
GI50 [4]: > 25 µM
TGI [4]: > 25 µM
GI50 [5]: > 25 µM
TGI [5]: > 25 µM
GI50 [6]: > 25 µM
TGI [6]: > 25 µM

C1CN(SSN2CCOCC2)CCO1
GI50 [1]: > 100 µM
TGI [1]: > 100 µM
GI50 [2]: 92.8 µM
TGI [2]: > 100 µM
GI50 [3]: 33.8 µM
TGI [3]: > 100 µM
GI50 [4]: 35.3 µM
TGI [4]: > 100 µM
GI50 [5]: 25 µM
TGI [5]: > 100 µM
GI50 [6]: 45 µM
TGI [6]: > 100 µM

O=C1c2ccccc2-c2c1c1ccccc1c(=O)n2CCN1CCOCC1
GI50 [1]: > 100 µM
TGI [1]: > 100 µM
GI50 [2]: > 100 µM
TGI [2]: > 100 µM
GI50 [3]: > 100 µM
TGI [3]: > 100 µM
GI50 [4]: > 100 µM
TGI [4]: > 100 µM
GI50 [5]: > 100 µM
TGI [5]: > 100 µM
GI50 [6]: > 100 µM
TGI [6]: > 100 µM

CC(C)(O)CC(=O)NCCn1ccc2ncnc(Nc3ccc(Oc4cccc(C(F)(F)F)c4)c(Cl)c3)c21
GI50 [1]: 2.96 µM
TGI [1]: > 10 µM
GI50 [2]: 4.53 µM
TGI [2]: > 10 µM
GI50 [3]: 3.98 µM
TGI [3]: > 10 µM
GI50 [4]: 2.58 µM
TGI [4]: > 10 µM
GI50 [5]: 3.46 µM
TGI [5]: > 10 µM
GI50 [6]: 0.641 µM
TGI [6]: > 10 µM

COc1ccc(/C=C2\CCCC3=C2NC(N)=NC3c2ccc(OC)c(OC)c2)cc1OC (configuration not stated)
GI50 [1]: 4.98 µM
TGI [1]: > 100 µM
GI50 [2]: 13.2 µM
TGI [2]: > 100 µM
GI50 [3]: 1.43 µM
TGI [3]: > 100 µM
GI50 [4]: 1.93 µM
TGI [4]: > 100 µM
GI50 [5]: 20.4 µM
TGI [5]: > 100 µM
GI50 [6]: 6.61 µM
TGI [6]: > 60.5 µM
